Data from patent publication US20050025809A1, “Poly-4-hydroxybutyrate matrices for sustained drug delivery” (Tepha, Inc., priority 2003, published 2005).
Like-named read-outs stand apart in the source and are kept apart here.

Experiments:
[1] = Drug release from PHA3444 rods in PBS; assay type: physicochemical; details: PHA3444-34%:drug 2:1 rods
From the text: The paste was then introduced into a mold measuring 150×5×5 mm, and left to dry at ambient temperature.

[2] = PHA4400 loaded 10:1, PBS pH 7.4, 37° C.

burst of release [1]: No burst of release was observed
average cumulative release ([1]; PBS pH 7.4, 37° C., at 17 days): ~23%
average cumulative release (PHA4400:drug 2:1 rods, PBS pH 7.4, 37° C., at 11 days): ~9%
burst of release [2]: no burst
total release (PHA4400 loaded 10:1, in fifteen days): 17%
SMILES: CN(C)[C@@H]1C(O)=C(C(N)=O)C(=O)[C@@]2(O)C(O)=C3C(=O)c4c(O)cccc4[C@@](C)(O)[C@H]3C[C@@H]12 [TCN, Tetracycline (neutral)]
release order [2]: almost perfect zero order release after the first hour
